Test results reported in PubChem BioAssay AID1963982 (Molecular Pharmacology Branch, DTP, NCI, 2024).

Test system: 313798-341-R-J2-PDC spheroids, viability
Test: Anticancer human tumor 313798-341-R-J2-PDC patient-derived cervical squamous cell carcinoma cell line growth inhibition [PI3K]
Details: spheroids with HUVEC and MSC; for IC50: curve of first compound; for viability, T/C: stronger effect = lower value; active = viability on the fitted dose curve at most 10% of control; inactive = the rest
Summary of the method: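 Tumor cells were combined with HUVEC and MSCs into spheroids, then dosed with PI3K-inhibitor combinations over half-log ranges capped near clinical Cmax or 10 microM.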

[1] = second compound 0.00316 µM, first compound 0.0316 µM
[2] = second compound 0.00316 µM, first compound 0.1 µM
[3] = second compound 0.00316 µM, first compound 0.316 µM
[4] = second compound 0.00316 µM, first compound 1 µM
[5] = second compound 0.00316 µM, first compound 3.16 µM
[6] = second compound 0.00316 µM, first compound 10 µM
[7] = second compound 0.01 µM, first compound 0.0316 µM
[8] = second compound 0.01 µM, first compound 0.1 µM
[9] = second compound 0.01 µM, first compound 0.316 µM
[10] = second compound 0.01 µM, first compound 1 µM
[11] = second compound 0.01 µM, first compound 3.16 µM
[12] = second compound 0.01 µM, first compound 10 µM
[13] = second compound 0.0316 µM, first compound 0.0316 µM
[14] = second compound 0.0316 µM, first compound 0.1 µM
[15] = second compound 0.0316 µM, first compound 0.316 µM
[16] = second compound 0.0316 µM, first compound 1 µM
[17] = second compound 0.0316 µM, first compound 3.16 µM
[18] = second compound 0.0316 µM, first compound 10 µM
[19] = second compound 0.1 µM, first compound 0.0316 µM
[20] = second compound 0.1 µM, first compound 0.1 µM
[21] = second compound 0.1 µM, first compound 0.316 µM
[22] = second compound 0.1 µM, first compound 1 µM
[23] = second compound 0.1 µM, first compound 3.16 µM
[24] = second compound 0.1 µM, first compound 10 µM
[25] = second compound 0.316 µM, first compound 0.0316 µM
[26] = second compound 0.316 µM, first compound 0.1 µM
[27] = second compound 0.316 µM, first compound 0.316 µM
[28] = second compound 0.316 µM, first compound 1 µM
[29] = second compound 0.316 µM, first compound 3.16 µM
[30] = second compound 0.316 µM, first compound 10 µM
[31] = second compound 1 µM, first compound 0.0316 µM
[32] = second compound 1 µM, first compound 0.1 µM
[33] = second compound 1 µM, first compound 0.316 µM
[34] = second compound 1 µM, first compound 1 µM
[35] = second compound 1 µM, first compound 3.16 µM
[36] = second compound 1 µM, first compound 10 µM
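Also: spheroids exposed to compounds for seven days.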
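For viability, T/C in this document: 100% = DMSO vehicle control viability.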

C=CC(=O)N1CCN(c2nc(=O)n(-c3c(C)ccnc3C(C)C)c3nc(-c4c(O)cccc4F)c(F)cc23)C(C)C1 (stereo not drawn) + CC(Nc1ccc2c(c1)OCCn1cc(N3C(=O)OCC3C(F)F)nc1-2)C(N)=O
> 10 µM: IC50 (second compound 0.00316 µM) | IC50 (second compound 0.01 µM) | IC50 (second compound 0.0316 µM) | IC50 (second compound 0.1 µM) | IC50 (second compound 0.316 µM) | IC50 (second compound 1 µM)
inactive: viability, T/C [1] 111% | viability, T/C [2] 92.3% | viability, T/C [3] 97.2% | viability, T/C [4] 96% | viability, T/C [5] 105% | viability, T/C [6] 98.7% | viability, T/C [7] 98.3% | viability, T/C [8] 102% | viability, T/C [9] 97.8% | viability, T/C [10] 95.2% | viability, T/C [11] 102% | viability, T/C [12] 97.7% | viability, T/C [13] 110% | viability, T/C [14] 97.1% | viability, T/C [15] 104% | viability, T/C [16] 96.9% | viability, T/C [17] 106% | viability, T/C [18] 102% | viability, T/C [19] 104% | viability, T/C [20] 95.3% | viability, T/C [21] 102% | viability, T/C [22] 101% | viability, T/C [23] 118% | viability, T/C [24] 100% | viability, T/C [25] 83.7% | viability, T/C [26] 85.8% | viability, T/C [27] 86.8% | viability, T/C [28] 96.7% | viability, T/C [29] 87.5% | viability, T/C [30] 70% | viability, T/C [31] 55.2% | viability, T/C [32] 59.5% | viability, T/C [33] 54.8% | viability, T/C [34] 56.4% | viability, T/C [35] 66.7% | viability, T/C [36] 56.2%

CC(C)NCC(C(=O)N1CCN(c2ncnc3c2C(C)CC3O)CC1)c1ccc(Cl)cc1 (stereo not drawn) + CC(Nc1ccc2c(c1)OCCn1cc(N3C(=O)OCC3C(F)F)nc1-2)C(N)=O
0.805 µM: IC50 (second compound 0.316 µM)
2.38 µM: IC50 (second compound 0.0316 µM)
1.85 µM: IC50 (second compound 0.01 µM)
2.25 µM: IC50 (second compound 0.00316 µM)
inactive: viability, T/C [1] 107% | viability, T/C [2] 94.9% | viability, T/C [3] 81% | viability, T/C [4] 68.6% | viability, T/C [5] 40.5% | viability, T/C [6] 25.9% | viability, T/C [7] 107% | viability, T/C [8] 103% | viability, T/C [9] 93.5% | viability, T/C [10] 61.1% | viability, T/C [11] 41.1% | viability, T/C [12] 30.2% | viability, T/C [13] 106% | viability, T/C [14] 92.5% | viability, T/C [15] 82.2% | viability, T/C [16] 69.5% | viability, T/C [17] 41.3% | viability, T/C [18] 25.6% | viability, T/C [19] 121% | viability, T/C [20] 99.6% | viability, T/C [21] 80.9% | viability, T/C [22] 62.5% | viability, T/C [23] 39.5% | viability, T/C [24] 27.2% | viability, T/C [25] 84.6% | viability, T/C [26] 84.2% | viability, T/C [27] 62.3% | viability, T/C [28] 46.7% | viability, T/C [29] 35.4% | viability, T/C [30] 26% | viability, T/C [31] 53% | viability, T/C [32] 50.2% | viability, T/C [33] 42.1% | viability, T/C [34] 38.2% | viability, T/C [35] 30.5% | viability, T/C [36] 25.5%
1.91 µM: IC50 (second compound 0.1 µM)
0.0749 µM: IC50 (second compound 1 µM)

CCN1CCN(Cc2ccc(Nc3ncc(F)c(-c4cc(F)c5nc(C)n(C(C)C)c5c4)n3)nc2)CC1 + Cc1nc(NC(=O)N2CCCC2C(N)=O)sc1-c1ccnc(C(C)(C)C(F)(F)F)c1
< 0.00316 µM: IC50 (second compound 10 µM)
> 1 µM: IC50 (second compound 0.0316 µM) | IC50 (second compound 0.1 µM) | IC50 (second compound 0.316 µM) | IC50 (second compound 1 µM) | IC50 (second compound 3.16 µM)
inactive: viability, T/C (second compound 0.0316 µM, first compound 0.00316 µM) 106% | viability, T/C (second compound 0.0316 µM, first compound 0.01 µM) 104% | viability, T/C [13] 109% | viability, T/C [14] 108% | viability, T/C [15] 131% | viability, T/C [16] 129% | viability, T/C (second compound 0.1 µM, first compound 0.00316 µM) 100% | viability, T/C (second compound 0.1 µM, first compound 0.01 µM) 104% | viability, T/C [19] 111% | viability, T/C [20] 104% | viability, T/C [21] 126% | viability, T/C [22] 131% | viability, T/C (second compound 0.316 µM, first compound 0.00316 µM) 96.9% | viability, T/C (second compound 0.316 µM, first compound 0.01 µM) 102% | viability, T/C [25] 112% | viability, T/C [26] 112% | viability, T/C [27] 114% | viability, T/C [28] 114% | viability, T/C (second compound 1 µM, first compound 0.00316 µM) 93.2% | viability, T/C (second compound 1 µM, first compound 0.01 µM) 102% | viability, T/C [31] 94.2% | viability, T/C [32] 110% | viability, T/C [33] 88.2% | viability, T/C [34] 80.9% | viability, T/C (second compound 3.16 µM, first compound 0.00316 µM) 63.6% | viability, T/C (second compound 3.16 µM, first compound 0.01 µM) 62.6% | viability, T/C (second compound 3.16 µM, first compound 0.0316 µM) 56.2% | viability, T/C (second compound 3.16 µM, first compound 0.1 µM) 59.9% | viability, T/C (second compound 3.16 µM, first compound 0.316 µM) 58.4% | viability, T/C (second compound 3.16 µM, first compound 1 µM) 69% | viability, T/C (second compound 10 µM, first compound 0.00316 µM) 37% | viability, T/C (second compound 10 µM, first compound 0.01 µM) 37.4% | viability, T/C (second compound 10 µM, first compound 0.0316 µM) 34.3% | viability, T/C (second compound 10 µM, first compound 0.1 µM) 35.8% | viability, T/C (second compound 10 µM, first compound 0.316 µM) 41.4% | viability, T/C (second compound 10 µM, first compound 1 µM) 45.8%

Cn1ncc(Cl)c1-c1cc(C(=O)NC(CN)Cc2cccc(F)c2)sc1Cl (stereo not drawn) + COc1c(OCCCN2CCOCC2)ccc2c3n(c(=NC(=O)c4cnc(N)nc4)nc12)CCN3
inactive: viability, T/C [1] 107% | viability, T/C [2] 84.7% | viability, T/C [3] 71% | viability, T/C [4] 46.7% | viability, T/C [5] 36.6% | viability, T/C [6] 35.5% | viability, T/C [7] 100% | viability, T/C [8] 99% | viability, T/C [9] 69.2% | viability, T/C [10] 41.6% | viability, T/C [11] 30.8% | viability, T/C [12] 36.8% | viability, T/C [13] 99.3% | viability, T/C [14] 61.9% | viability, T/C [15] 53.7% | viability, T/C [16] 36.4% | viability, T/C [17] 25.2% | viability, T/C [18] 25.5% | viability, T/C [19] 49.4% | viability, T/C [20] 43.5% | viability, T/C [21] 41.4% | viability, T/C [22] 27.1% | viability, T/C [23] 20.2% | viability, T/C [24] 15.4% | viability, T/C [25] 17.5% | viability, T/C [26] 18.1% | viability, T/C [27] 15.2% | viability, T/C [28] 16.6% | viability, T/C [29] 13% | viability, T/C [31] 12.7% | viability, T/C [32] 12.4% | viability, T/C [33] 13.6%
0.28 µM: IC50 (second compound 0.0316 µM)
0.678 µM: IC50 (second compound 0.01 µM)
< 0.0316 µM: IC50 (second compound 0.1 µM) | IC50 (second compound 0.316 µM) | IC50 (second compound 1 µM)
0.93 µM: IC50 (second compound 0.00316 µM)
active: viability, T/C [30] 5.97% | viability, T/C [34] 12.3% | viability, T/C [35] 9.74% | viability, T/C [36] 3.3%
